Experimental data published in patent US4444691A, “11-Cyano-prostaglandins of the F-series” (American Cyanamid Company, priority 1982, dated 1984).
Read-outs that look alike come from different tables or passages of the source.

Columns and labels:
gastric acid secretion = experiment: Gastric acid secretion inhibition, modified Shay rat procedure; type: in vivo, rats (male, CFE strain); conditions: Rattus norvegicus, read-out: Percent inhibition of gastric acid secretion
Source text: The novel compounds of the present invention are effective inhibitors of gastric acid secretion and of ulcer development in experimental animals, and thus are potentially valuable as agents for the control of gastric secretion and of gastric erosion and as anti-ulcer agents. Gastric acid secretion inhibitory action is usually measured by the "Shay rat" procedure ^(1,2) with some modifications as follows.
(1) Shay et al., Gastroenterology, 5, 43 (1945).
The rats (male, CFE strain) were starved for 48 hours (water was given ad libitum) to permit evacuation of stomach contents. On the morning of the experiment, under ether anesthesia, the abdominal region was shaved and a midline incision (1-11/2" ) was made with a scapel. With the help of a closed curved hemostat the duodenum was picked up. Upon getting the duodenum into view, fingers were used to pull the stomach through the opening, the stomach was then gently manipulated with fingers to rid stomach of air and residual matter which were pushed through the pylorus. Two-5 inch sutures were drawn under the pyloric-duodenal puncture. A ligature at the juncture, was formed with one of the threads. The second ligature was also formed but not tightened.
The test compound or the vehicle, usually 1 ml./100 g. body weight, were injected into the duodenum as close as possible to the first ligature. After injection the second ligature was tightened below the injection site to minimize leakage. The stomach was placed back through the opening into the abdominal cavity, the area of incision was washed with saline and the incision was closed with autoclips. (Occasionally, instead of an intraduodenal injection, animals were dosed by the oral or subcutaneous route. In the latter case, dosing was done thirty to sixty minutes before the operation.)
The abdominal cavity was exposed by cutting with scissors and the esophagus close to the stomach was clamped off with a hemostat, the stomach was removed by cutting above the hemostat (the esophagus was cut) and between the two sutures. Extraneous tissue was removed, the stomach washed with saline and blotted on gauze. A slit was carefully made in the stomach which was held over a funnel and the contents were collected in a centrifuge tube. The stomach was further cut along the outside edge and turned inside out. Two ml. H2 O were used to wash the stomach contents into the respective centrifuge tube. The combined stomach contents and wash were then centrifuged out for 10 minutes in the International Size 2 Centrifuge (setting at 30). The supernatant was collected, volume measured and recorded, 2 drops of a phenylphthalein indicator (1% in 95% ethanol) were added and the solution was titrated with 0.02 N NaOH (or with 0.04 N NaOH when large volumes of stomach contents were encountered) to pH 8.4 (because of usual coloring of the stomach contents, phenolphthalein was only used to permit visual indication that the end point was near) and the amount of acid present was calculated.
Compounds inducing inhibition of gastric acid secretion of 20% or more were considered active. In a representative operation, and merely by way of illustration, the results obtained with this assay with typical compounds of the present invention are given in Table II below.

[1] = system: basal gastric acid secretion; experiment: Inhibition of total acid output (basal gastric acid secretion) in the acute gastric fistula rat; type: in vivo, female Sprague-Dawley rats; conditions: intraduodenal; for inhibition in vivo at 10 mg/kg / inhibition in vivo at 2.5 mg/kg / inhibition in vivo at 5 mg/kg: Rattus norvegicus
Description: Inhibition of basal gastric acid secretion can be determined by the following procedure.
Female Sprague-Dawley rats weighing 140-160 grams are fasted in individual cages for 18-24 hours. The rats are then lightly anesthetized with ether and their front teeth extracted to avoid destruction of the plastic cannula. A midline incision is then made and the stomach and duodenum exposed. A flanged polyvinyl tube is inserted into the fundic portion of the stomach and secured with a purse string suture line using 4-O Mersilene. The rat is then dosed by injection of the compound into the duodenum (1.0 ml. per 100 gram body weight). After dosing, the abdominal wall and skin are closed using metal wound clips. The rat is replaced in a cage containing a longitudinal slit to allow the polyvinyl tube to hang freely. An 8 ml. plastic collecting tube is attached to the flanged cannula and hangs freely below the cage. The first 30 minute sample is discarded designating this time as zero. The collecting tube is attached again and samples removed at the end of 60 and 120 minutes. These samples are referred to as "A" and "B" in the table. The hourly samples are then transferred to a 15 ml. centrifuge and centrifuged for 5-10 minutes. Total and sediment volume are then recorded with the supernatent volume being used as volume of secretion. A 1 ml. or less aliquot is then removed and placed in a 50 ml. beaker containing 10 ml. of distilled water. This sample is then titrated using 0.01 N NaPH to pH 7.0 using a Beckman zeromatic pH meter. Volume, titratable acidity (mew/L) and total acid output (ueq/hour) are recorded. Percent inhibition is determined by comparison with the appropriate control. Groups of three rats were used for preliminary testing, and groups of six rats were used for dose-response evaluations. All compounds are administered in a vehicle consisting of 0.5% methocel, 0.4% tween 80, and saline at a constant volume of 1 ml./100 gram rat. Samples are dispersed by sonification. Percent inhibition is calculated on basis of concurrent vehicle control.
In Table III which follows is given the effect on total acid output after 60 minutes and 120 minutes of intraduodenal dose, of representative compounds of this invention.

[2] = system: ulcerogenic effects induced by indomethacin (stomach ulcers); type: in vivo, rat; conditions: indomethacin 20 mg/kg s.c., score 0-4
Description: It is further to be noted that although prostaglandins in general are not effective when administered by oral route, the compounds of this invention are effective orally. The assay to determine the protective effect of these compounds is carried out in the following manner.
Rats were starved for 48 hours (water was given ad libitum). Indomethacin (20 mg./kg. of body weight) was administered by the subcutaneous route and one-half the dose of the test compound was administered by gavage at the same time. After three hours, the second half of the test compound was administered, also by gavage. Five hours after the administration of indomethacin the animals were decapitated and the stomachs removed. The stomachs were washed with distilled water, blotted on gauze, cut along the larger curvature, and the contents rinsed with distilled water. The stomachs were spread out, pinned on a cork and visualized under magnifying glass for ulcers. The criteria for scoring of ulcers was as previously reported. [Abdel-Galil et al. Brit. J. Pharmac. Chemotherapy 33:1-14 (1968)]. […]
1 Petechial hemorrhage of pin point ulcers
3 Many ulcers, a few large
4 Many ulcers, mainly large
Control animals treated with indomethacin but not test compound consistently give scores of about 2.5-3.5. Control animals treated with neither indomethacin not test compound give scores of about 0.5-0.8. Compounds diminishing the control ulcer score by 0.5 unit or more are considered to be active.

[3] = 1 h, 10 mg/kg, 60 min, read-out: % Inhibition of total acid output, after 60 minutes (A)
[4] = 2 h, 10 mg/kg, 120 min, read-out: % Inhibition of total acid output, after 120 minutes (B)
[5] = 1 h, 60 min, read-out: % Inhibition of total acid output, after 60 minutes (A)
[6] = 2 h, 120 min, read-out: % Inhibition of total acid output, after 120 minutes (B)
[7] = total oral dose 50 mg/kg, controls 2.5-3.2
[8] = total oral dose 25 mg/kg, controls 2.7-3.9

CCCCC[C@H](O)/C=C/[C@H]1[C@H](C(C)(C)O)CC(=O)[C@@H]1C/C=C\CCCC(=O)O [11-deoxy-11α-(1-hydroxy-1-methylethyl)prostaglandin-E2]
inhibition in vivo at 8 mg/kg (gastric acid secretion; sc, subcutaneous, 8 mg/kg): 31%

CCCCC[C@H](O)/C=C/[C@@H]1[C@@H](C/C=C\CCCC(=O)O)[C@@H](O)C[C@H]1C(C)(C)O [11-deoxy-11α-(1-hydroxy-1-methylethyl)prostaglandin-F2α]
inhibition in vivo at 10 mg/kg [1, 3]: 36% | inhibition in vivo at 10 mg/kg [1, 4]: 35%

CCCCC[C@@H](/C=C/[C@H]1[C@H](SCC)CC(=O)[C@@H]1C/C=C\CCCC(=O)OC)OC(C)=O [11-deoxy-11α-ethylthio-15-O-acetyl prostaglandin E2 methyl ester]
inhibition in vivo at 2.5 mg/kg [1, 5]: 54% | inhibition in vivo at 5 mg/kg [1, 5]: 19% | inhibition in vivo at 10 mg/kg [1, 3]: 80% | inhibition in vivo at 2.5 mg/kg [1, 6]: 51% | inhibition in vivo at 5 mg/kg [1, 6]: 59% | inhibition in vivo at 10 mg/kg [1, 4]: 24% | inhibition in vivo at 50 mg/kg (gastric acid secretion; intraduodenal): 27%

CCCCCC(C)/C=C/[C@H]1[C@H](C)CC(=O)[C@@H]1C/C=C\CCCC(=O)OC (stereo partly drawn) [11-deoxy-11α-methyl-15-deoxy-15-methylprostaglandin E2 methyl ester]
inhibition in vivo at 50 mg/kg (gastric acid secretion; intraduodenal): 40%

CCCCC[C@H](O)/C=C/[C@@H]1[C@@H](C/C=C\CCCC(=O)O)[C@@H](O)C[C@H]1C(N)=O [11α-carboxamido-11-deoxyprostaglandin F2α]
Ulcer score, treated animals [2, 7]: 2.3 | inhibition in vivo at 50 mg/kg (gastric acid secretion; intraduodenal): 27%

CCCCC[C@H](O)/C=C/[C@@H]1[C@@H](C/C=C\CCCC(=O)O)[C@@H](O)C[C@H]1C(C)C [11α-isopropyl-11-deoxyprostaglandin F2α]
inhibition in vivo at 10 mg/kg [1, 3]: 44% | inhibition in vivo at 10 mg/kg [1, 4]: 35%

CCCCC[C@H](O)/C=C/[C@H]1[C@H](C[N+](=O)[O-])C[C@H](O)[C@@H]1C/C=C\CCCC(=O)O [11α-nitromethyl-11-deoxyprostaglandin F2α]
Ulcer score, treated animals [2, 7]: 1.8 | inhibition in vivo at 50 mg/kg (gastric acid secretion; intraduodenal): 38%

CCCCC[C@@H](/C=C/[C@H]1C(C#N)CC(=O)[C@@H]1C/C=C\CCCC(=O)OC)OC(C)=O (stereo partly drawn) [11α/11β-cyano-11-deoxy-15-O-acetyl-prostaglandin E2 methyl ester]
Ulcer score, treated animals ([2]; total oral dose 12.5 mg/kg, controls 2.5-3.0): 2.0 | Ulcer score, treated animals [2, 7]: 1.3 | inhibition in vivo at 10 mg/kg [1, 3]: 40% | inhibition in vivo at 10 mg/kg [1, 4]: 34% | inhibition in vivo at 25 mg/kg (gastric acid secretion; intraduodenal, 25 mg/kg): 51%

CCCCC[C@H](O)/C=C/[C@H]1C(C#N)CC(=O)[C@@H]1C/C=C\CCCC(=O)OC (stereo partly drawn) [11α/β-cyano-11-deoxyprostaglandin E2 methyl ester]
Ulcer score, treated animals [2, 8]: 1.3 | inhibition in vivo at 50 mg/kg (gastric acid secretion; intraduodenal): 33%

CCCCCC(C)/C=C/[C@@H]1[C@@H](C/C=C\CCCC(=O)O)[C@@H](O)C[C@H]1C (stereo partly drawn) [l-9α-hydroxy-11α,15-dimethyl-S--cis,13-trans-prostadienoic acid]
inhibition in vivo at 10 mg/kg [1, 3]: 25% | inhibition in vivo at 10 mg/kg [1, 4]: 20%

CCCCCC(O)/C=C/C1C(S)CC(O)C1C/C=C\CCCC(=O)O (stereo not drawn) [l-11-mercapto-11-deoxprostaglandin-F2 α, l-11-deoxy-11α-mercaptoprostaglandin-F2 α]
% Inhibition of total acid output, after 60 minutes (A) ([1]; 10 mg/kg, 60 min): 44% | % Inhibition of total acid output, after 120 minutes (B) ([1]; 10 mg/kg, 120 min): 55%

CCCCCC(C)/C=C/C1C(C)CC(=O)C1C/C=C\CCCC(=O)O (stereo not drawn) [l-11α,15-dimethyl-11,15-bis-deoxyprostaglandin-E2 α]
Ulcer score, treated animals [2, 7]: 2.2

CCCCC[C@H](O)/C=C/[C@H]1[C@H](CC)C[C@H](O)[C@@H]1C/C=C\CCCC(=O)O [l-11α-ethyl-11-deoxyprostaglandin-F2 α, 11α-ethyl-11-deoxyprostaglandin F2α]
Ulcer score, treated animals [2, 8]: 2.2

CCCCC[C@@H](/C=C/[C@H]1[C@H](C)CC(=O)[C@@H]1C/C=C\CCCC(=O)OC)OC(C)=O [l-11α-methyl-11-deoxyprostaglandin-E2 15-O--acetyl methyl ester]
inhibition in vivo at 50 mg/kg (gastric acid secretion; intraduodenal): 63%

CCCCC[C@@H](/C=C/[C@H]1[C@H](SC)CC(=O)[C@@H]1C/C=C\CCCC(=O)OC)OC(C)=O [l-11α-methylthio-11-deoxyprostaglandin-E2 15-O--acetate methyl ester]
Ulcer score, treated animals [2, 7]: 2.0 | inhibition in vivo at 50 mg/kg (gastric acid secretion; intraduodenal): 35%

CCCCC[C@H](O)/C=C/[C@H]1[C@H](SC)CC(=O)[C@@H]1C/C=C\CCCC(=O)OC [l-11α-methylthio-11-deoxyprostaglandin-E2 methyl ester]
inhibition in vivo at 100 mg/kg (gastric acid secretion; intraduodenal, 100 mg/kg): 55%

CCCCC[C@H](O)/C=C/[C@@H]1[C@@H](C/C=C\CCCC(=O)O)[C@@H](O)C[C@H]1c1ccccc1 [l-11α-phenyl-11-deoxyprostaglandin-F2 α, l-11-deoxy-11α-phenylprostaglandin-F2 α]
Ulcer score, treated animals [2, 8]: 2.0

CCCCC[C@H](O)/C=C/[C@H]1[C@@H](CO)C[C@H](O)[C@@H]1C/C=C\CCCC(=O)O [l-11β-hydroxymethyl-11-deoxyprostaglandin-F2 α]
inhibition in vivo at 10 mg/kg [1, 3]: 0% | inhibition in vivo at 10 mg/kg [1, 4]: 43%
